Experimental data as given in patent USRE47689E1, “Compounds for treating spinal muscular atrophy” (PTC Therapeutics, Inc., priority 2011, dated 2019).

Legend:
[1] = tested on: SMN2 minigene (full length SMN2 minigene mRNA containing SMN2 exon 7); test: SMN2 minigene mRNA splicing RT-qPCR assay in cultured cells; format: cell-based, human; conditions: Homo sapiens, HEK293-H; HEK293H cells stably transfected with SMN2-A minigene; 24 hours; 7-point concentration curve; 1.5-fold relative to vehicle-treated cells; read-out: EC1.5x for production of full length SMN2 mRNA
Summary of the method: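 Lysates → one-step RT-qPCR, minigene-specific primers (0.4 μM final) + GAPDH multiplex, 40 cycles. FL/GAPDH vs DMSO; EC1.5x, star-binned.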

[2] = tested on: Smn protein; test: Smn protein assay in cultured cells (SMN HTRF); format: cell-based, human; conditions: 48 hours; for EC1.5x (concentration giving 1.5-fold Smn protein increase): SMA Type 1 patient fibroblast cells (GM03813), 7-point concentration curve, SMN HTRF, concentration producing 1.5 times Smn protein vs DMSO vehicle control, read-out: EC1.5x for Smn protein expression; for maximum fold (Fold) increase of Smn protein: SMA patient fibroblast cells, 7-point concentration data, fold increase relative to vehicle control (SMN HTRF)
Summary of the method: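 Smn in SMA fibroblast lysates, measured by anti-SMN HTRF after 48 h compound exposure; EC1.5x from fold change over vehicle.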

SMILES | EC (1.5-fold) [1] | EC1.5x (concentration giving 1.5-fold Smn protein increase) [2] | maximum fold (Fold) increase of Smn protein [2] | melting point
Cc1cn2cc(-c3cc4c(F)cc(N5CCCN(C)CC5)cc4oc3=O)nc2c(C)n1 [Compound 614, 3-(6,8-dimethylimidazo[1,2-a]pyrazin-2-yl)-5-fluoro-7-(4-methyl-1,4-diazepan-1-yl)-2H-chromen-2-one] | < 0.1 µM | < 300 nM | ***** (fold increase >1.65) | 223 to 225 °C
Cc1cn2cc(-c3cc4ccc(N(C)C5CCN(C)C5)cc4oc3=O)nc2c(C)n1 (stereo not shown) [Compound 615, 3-(6,8-dimethylimidazo[1,2-a]pyrazin-2-yl)-7-[methyl(1-methylpyrrolidin-3-yl)amino]-2H-chromen-2-one] | < 0.1 µM | < 300 nM | **** (fold increase between >1.5 and ≤1.65) | 182 to 184 °C
Cc1cn2cc(-c3cc4ccc(N(C)C5CCN(Cc6ccccc6)C5)cc4oc3=O)nc2c(C)n1 (stereo not shown) [Compound 616, 7-[(1-benzylpyrrolidin-3-yl)(methyl)amino]-3-(6,8-dimethylimidazo[1,2-a]pyrazin-2-yl)-2H-chromen-2-one] | 0.1 to 0.3 µM | – | ** (fold increase between >1.2 and ≤1.35) | 150 to 152 °C
Cc1cn2cc(-c3cc4ccc(NC5CNC5)cc4oc3=O)nc2c(C)n1 [Compound 619, 7-(azetidin-3-ylamino)-3-(6,8-dimethylimidazo[1,2-a]pyrazin-2-yl)-2H-chromen-2-one] | < 0.1 µM | < 300 nM | **** (fold increase between >1.5 and ≤1.65) | 250 to 256 °C
CCN1CCN(c2ccc3cc(-c4cn5cc(C)nc(C)c5n4)c(=O)oc3c2)CC1 [Compound 621, 3-(6,8-dimethylimidazo[1,2-a]pyrazin-2-yl)-7-(4-ethylpiperazin-1-yl)-2H-chromen-2-one] | < 0.1 µM | < 300 nM | ***** (fold increase >1.65) | 215 to 217 °C
CCN1CCN(c2ccc3cc(-c4cn5cc(C)ncc5n4)c(=O)oc3c2)CC1 [Compound 622, 7-(4-ethylpiperazin-1-yl)-3-(6-methylimidazo[1,2-a]pyrazin-2-yl)-2H-chromen-2-one] | < 0.1 µM | < 300 nM | **** (fold increase between >1.5 and ≤1.65) | 242 to 255 °C
Cc1cn2cc(-c3cc4ccc(N5C[C@@H]6C[C@H]5CN6)cc4oc3=O)nc2cn1 [Compound 623, 7-[(1S,4S)-2,5-diazabicyclo[2.2.1]hept-2-yl]-3-(6-methylimidazo[1,2-a]pyrazin-2-yl)-2H-chromen-2-one] | < 0.1 µM | 300 to 1000 nM | *** (fold increase between >1.35 and ≤1.5) | 225 to 227 °C
Cc1ccc2nc(-c3cc4ccc(N5CCN[C@@H](C)C5)cc4oc3=O)cn2n1 [Compound 624, 3-(6-methylimidazo[1,2-b]pyridazin-2-yl)-7-[(3S)-3-methylpiperazin-1-yl]-2H-chromen-2-one] | < 0.1 µM | – | *** (fold increase between >1.35 and ≤1.5) | 208 to 212 °C
Cc1cn2cc(-c3cc4ccc(N5CCN6CCC[C@@H]6C5)cc4oc3=O)nc2cn1 [Compound 625, 7-[(8aR)-hexahydropyrrolo[1,2-a]pyrazin-2(1H)-yl]-3-(6-methylimidazo[1,2-a]pyrazin-2-yl)-2H-chromen-2-one] | < 0.1 µM | 300 to 1000 nM | *** (fold increase between >1.35 and ≤1.5) | 240 to 245 °C
